A word on the AC50: it is the concentration at which the activity in the assay is half-maximal. What is called IC50 is the concentration at which inhibition is half-maximal. As usually defined, the CC50 is the concentration at which the toxic effect on the cells reaches its halfway point. The term Ki denotes the equilibrium dissociation constant of an inhibitor or competing ligand from its target.

Data on 8 compounds can be found in ChEMBL document CHEMBL1201862, “PubChem BioAssay data set” (2004).

Active and inactive are the calls of the source. A value given as a limit tells only on which side of the number the result lay.

Assay [1] is described as follows: inhibitors of cytokine-induced nitrite release, dose response, cell-based, Griess absorbance, INS-1E, dry powder, set 3 (AID 488870). Type of assay: functional. The conditions noted are these: Rattus norvegicus.
Assay [2] concerns INS1. Briefly: inhibitors of cytokine-induced nitrite release, dose response, cell-based, Griess absorbance, INS-1E, dry powder (AID 488866). It counts as functional. Particulars: Rattus norvegicus. On the technique in general: Griess reagent forms a coloured azo dye with nitrite.
Assay [3] concerns INS1. Briefly: inhibitors of cytokine-induced nitrite release, dose response, cell-based, Griess absorbance, INS-1E, dry powder, set 2 (AID 488868). Type of assay: functional. The conditions noted are these: Rattus norvegicus.
Assay [4] deals with INS1. Briefly: protection of INS-1E cells from cytokine death, dose response, ATP luminescence, dry powder (AID 488844). Particulars: Rattus norvegicus. It counts as functional, cell-based.
Assay [5] concerns INS1. The assay can be described thus: protection from cytokine-driven beta-cell apoptosis, dose response, JC-1 fluorescence, INS-1E, dry powder, set 2 (AID 488867). Type of assay: functional, cell-based. Particulars: Rattus norvegicus.
Assay [6] deals with INS1. The assay can be described thus: protection from cytokine-induced mitochondrial depolarization, dose response, cell-based, INS-1E, JC-1 fluorescence ratio, dry powder (AID 488931). Type of assay: functional. Particulars: Rattus norvegicus.
Another assay has as its target Phospholipase D1 (Homo sapiens, UniProt Q13393). The assay can be described thus: PLD1 inhibitor potency in cells, dose response (AID 602151).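 Also: cellular PLD1 assay in Calu-1 cells stimulated with PMA.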 Type of assay: functional.
For a further assay, the target named is Phospholipase D2 (Homo sapiens, UniProt O14939). Briefly: PLD2 inhibitor potency in cells, dose response (AID 602147).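 Also: cellular assay in HEK293 cells overexpressing GFP-tagged PLD2.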 It counts as functional.
The nature of assay [7]: A cell-based HTS for delayed death inhibitors of the malarial parasite plastid Measured in Microorganism System Using Plate Reader - 2126-02_Inhibitor_Dose_DryPowder_Activity. Type of assay: functional, organism-based.
Assay [8] can be described thus: A cell-based HTS for delayed death inhibitors of the malarial parasite plastid Measured in Microorganism System Using Plate Reader - 2126-01_Inhibitor_Dose_DryPowder_Activity. It counts as functional, organism-based.
Assay [9] can be described thus: Vero cell cytotoxicity, dose response, cytotoxicity control for M. tuberculosis growth inhibitor project, Vero cells, purified and synthesized compounds, set 4 (AID 504854). It counts as functional. The conditions noted are these: Mycobacterium tuberculosis.
Assay [10] has as its target Protein kinase C delta type (Homo sapiens, UniProt Q05655). It counts as functional.
The target in assay [11] is Calcium/calmodulin-dependent protein kinase type II subunit gamma (Homo sapiens, UniProt Q13555). Type of assay: functional.
The target in assay [12] is Serine/threonine-protein kinase PAK 1 (Homo sapiens, UniProt Q13153). It counts as functional.
In assay [13] the target is Calcium/calmodulin-dependent protein kinase type II subunit delta (Homo sapiens, UniProt Q13557). It counts as functional.
The target of assay [14] is Casein kinase I isoform alpha (Homo sapiens, UniProt P48729). It counts as functional.
The target in assay [15] is Serine/threonine-protein kinase TAO1 (Homo sapiens, UniProt Q7L7X3). It counts as functional.
The target in assay [16] is Casein kinase I isoform delta (Homo sapiens, UniProt P48730). Type of assay: functional.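 Also: measured as one member (CSNK1D) of a kinome panel.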
Assay [17] has as its target Calcium/calmodulin-dependent protein kinase type II subunit beta (Homo sapiens, UniProt Q13554). Type of assay: functional.
The target in assay [18] is Latent membrane protein 1 (Human herpesvirus 4 (strain B95-8), UniProt P03230). Briefly: TES1-eGFP NF-kB reporter inhibition versus Tet-On dsRED, dose response, selectivity assay for LMP1 NF-kB inhibitor project, imaging, HEK293T, dual-color eGFP/dsRED, cherry-picks (AID 588398). Type of assay: functional, cell-based.
A further assay addresses Aurora kinase A (Homo sapiens, UniProt O14965). Type of assay: functional.
The target of assay [19] is Vascular endothelial growth factor receptor 2 (Homo sapiens, UniProt P35968). Type of assay: functional.
The next assay addresses Aurora kinase B (Homo sapiens, UniProt Q96GD4). Type of assay: functional.

Casein kinase I isoform delta, sequence (P48730 whole entry, canonical isoform): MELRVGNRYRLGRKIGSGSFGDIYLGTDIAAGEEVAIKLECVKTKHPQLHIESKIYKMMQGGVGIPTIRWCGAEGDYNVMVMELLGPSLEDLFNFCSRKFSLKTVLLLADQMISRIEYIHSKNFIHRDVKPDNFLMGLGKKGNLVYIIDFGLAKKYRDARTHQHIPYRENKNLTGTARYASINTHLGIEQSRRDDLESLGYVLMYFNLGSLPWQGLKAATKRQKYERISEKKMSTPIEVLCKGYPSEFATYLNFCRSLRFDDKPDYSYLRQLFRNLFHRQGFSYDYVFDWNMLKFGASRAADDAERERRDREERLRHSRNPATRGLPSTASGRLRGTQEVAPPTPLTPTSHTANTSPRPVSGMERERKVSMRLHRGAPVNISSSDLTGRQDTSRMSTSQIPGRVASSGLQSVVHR
Phospholipase D1, sequence (Q13393 whole entry): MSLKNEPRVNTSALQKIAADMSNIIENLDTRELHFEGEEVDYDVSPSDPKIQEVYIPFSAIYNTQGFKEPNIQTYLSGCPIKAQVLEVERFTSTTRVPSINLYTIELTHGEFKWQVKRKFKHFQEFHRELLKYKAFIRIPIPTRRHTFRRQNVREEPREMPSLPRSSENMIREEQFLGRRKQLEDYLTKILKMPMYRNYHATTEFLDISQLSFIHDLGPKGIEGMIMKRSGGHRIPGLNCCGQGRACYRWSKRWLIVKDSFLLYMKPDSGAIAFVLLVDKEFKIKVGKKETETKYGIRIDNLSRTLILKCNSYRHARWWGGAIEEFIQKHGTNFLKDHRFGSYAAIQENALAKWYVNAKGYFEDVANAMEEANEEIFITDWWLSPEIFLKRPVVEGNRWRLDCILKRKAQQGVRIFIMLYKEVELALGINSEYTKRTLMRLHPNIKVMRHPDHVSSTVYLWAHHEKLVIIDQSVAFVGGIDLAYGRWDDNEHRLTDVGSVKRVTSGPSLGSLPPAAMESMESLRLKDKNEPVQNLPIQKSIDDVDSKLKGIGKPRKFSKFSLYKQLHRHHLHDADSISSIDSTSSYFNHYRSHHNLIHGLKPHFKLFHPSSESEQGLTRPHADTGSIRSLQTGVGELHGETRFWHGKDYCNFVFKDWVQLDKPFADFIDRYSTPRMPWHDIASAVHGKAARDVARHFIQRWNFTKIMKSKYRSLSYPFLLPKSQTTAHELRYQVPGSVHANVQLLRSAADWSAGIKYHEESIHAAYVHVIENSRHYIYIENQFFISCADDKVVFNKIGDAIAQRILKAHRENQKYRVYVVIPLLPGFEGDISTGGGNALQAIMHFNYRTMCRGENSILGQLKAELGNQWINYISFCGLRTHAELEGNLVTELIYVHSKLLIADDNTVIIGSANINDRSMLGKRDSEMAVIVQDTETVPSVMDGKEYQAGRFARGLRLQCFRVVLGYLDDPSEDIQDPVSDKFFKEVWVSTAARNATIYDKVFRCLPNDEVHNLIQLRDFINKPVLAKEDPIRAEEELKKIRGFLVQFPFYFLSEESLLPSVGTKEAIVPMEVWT
Calcium/calmodulin-dependent protein kinase type II subunit gamma, sequence (Q13555 whole entry): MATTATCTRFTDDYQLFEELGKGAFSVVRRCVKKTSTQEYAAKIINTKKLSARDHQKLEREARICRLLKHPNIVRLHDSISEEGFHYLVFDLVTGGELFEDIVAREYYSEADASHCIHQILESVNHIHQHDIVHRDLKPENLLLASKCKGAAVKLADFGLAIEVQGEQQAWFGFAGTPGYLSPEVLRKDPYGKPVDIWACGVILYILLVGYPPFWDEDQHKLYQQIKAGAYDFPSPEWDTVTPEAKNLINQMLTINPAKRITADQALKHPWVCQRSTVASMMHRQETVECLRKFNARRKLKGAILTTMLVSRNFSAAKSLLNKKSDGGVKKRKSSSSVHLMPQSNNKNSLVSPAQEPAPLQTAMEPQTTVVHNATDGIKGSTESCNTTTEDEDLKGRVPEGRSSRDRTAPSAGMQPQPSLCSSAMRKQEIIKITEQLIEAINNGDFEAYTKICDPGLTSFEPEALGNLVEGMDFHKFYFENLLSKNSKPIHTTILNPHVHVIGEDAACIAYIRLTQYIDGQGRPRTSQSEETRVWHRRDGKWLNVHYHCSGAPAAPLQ
Protein kinase C delta type, sequence (Q05655 whole entry): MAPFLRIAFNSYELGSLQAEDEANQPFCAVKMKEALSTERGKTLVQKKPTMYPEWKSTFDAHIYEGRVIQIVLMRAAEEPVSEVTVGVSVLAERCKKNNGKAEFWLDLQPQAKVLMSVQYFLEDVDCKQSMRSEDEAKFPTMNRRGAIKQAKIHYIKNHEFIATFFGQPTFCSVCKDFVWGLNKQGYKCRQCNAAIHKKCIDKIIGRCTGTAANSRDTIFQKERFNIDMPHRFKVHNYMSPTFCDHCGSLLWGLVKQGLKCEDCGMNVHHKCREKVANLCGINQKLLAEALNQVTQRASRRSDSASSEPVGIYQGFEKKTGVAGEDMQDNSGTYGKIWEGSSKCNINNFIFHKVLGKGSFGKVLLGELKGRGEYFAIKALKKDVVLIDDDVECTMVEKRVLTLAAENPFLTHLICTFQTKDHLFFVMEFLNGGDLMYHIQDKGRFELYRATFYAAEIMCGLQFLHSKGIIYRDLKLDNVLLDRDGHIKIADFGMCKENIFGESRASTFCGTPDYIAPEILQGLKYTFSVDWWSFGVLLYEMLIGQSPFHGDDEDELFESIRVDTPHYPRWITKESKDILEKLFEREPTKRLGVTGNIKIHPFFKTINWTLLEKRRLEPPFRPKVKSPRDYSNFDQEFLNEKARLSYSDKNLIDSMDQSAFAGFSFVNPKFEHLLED
Aurora kinase B, sequence (Q96GD4 whole entry): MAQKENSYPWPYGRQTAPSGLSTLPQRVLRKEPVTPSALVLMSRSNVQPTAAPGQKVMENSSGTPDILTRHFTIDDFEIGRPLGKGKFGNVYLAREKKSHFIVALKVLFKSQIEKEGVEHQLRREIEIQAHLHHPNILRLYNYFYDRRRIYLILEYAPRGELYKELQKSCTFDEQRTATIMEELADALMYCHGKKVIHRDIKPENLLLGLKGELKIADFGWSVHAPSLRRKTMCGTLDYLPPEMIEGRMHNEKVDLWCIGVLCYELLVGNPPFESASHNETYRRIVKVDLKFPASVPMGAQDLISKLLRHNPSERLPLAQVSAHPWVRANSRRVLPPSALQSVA
Phospholipase D2, sequence (O14939 whole entry): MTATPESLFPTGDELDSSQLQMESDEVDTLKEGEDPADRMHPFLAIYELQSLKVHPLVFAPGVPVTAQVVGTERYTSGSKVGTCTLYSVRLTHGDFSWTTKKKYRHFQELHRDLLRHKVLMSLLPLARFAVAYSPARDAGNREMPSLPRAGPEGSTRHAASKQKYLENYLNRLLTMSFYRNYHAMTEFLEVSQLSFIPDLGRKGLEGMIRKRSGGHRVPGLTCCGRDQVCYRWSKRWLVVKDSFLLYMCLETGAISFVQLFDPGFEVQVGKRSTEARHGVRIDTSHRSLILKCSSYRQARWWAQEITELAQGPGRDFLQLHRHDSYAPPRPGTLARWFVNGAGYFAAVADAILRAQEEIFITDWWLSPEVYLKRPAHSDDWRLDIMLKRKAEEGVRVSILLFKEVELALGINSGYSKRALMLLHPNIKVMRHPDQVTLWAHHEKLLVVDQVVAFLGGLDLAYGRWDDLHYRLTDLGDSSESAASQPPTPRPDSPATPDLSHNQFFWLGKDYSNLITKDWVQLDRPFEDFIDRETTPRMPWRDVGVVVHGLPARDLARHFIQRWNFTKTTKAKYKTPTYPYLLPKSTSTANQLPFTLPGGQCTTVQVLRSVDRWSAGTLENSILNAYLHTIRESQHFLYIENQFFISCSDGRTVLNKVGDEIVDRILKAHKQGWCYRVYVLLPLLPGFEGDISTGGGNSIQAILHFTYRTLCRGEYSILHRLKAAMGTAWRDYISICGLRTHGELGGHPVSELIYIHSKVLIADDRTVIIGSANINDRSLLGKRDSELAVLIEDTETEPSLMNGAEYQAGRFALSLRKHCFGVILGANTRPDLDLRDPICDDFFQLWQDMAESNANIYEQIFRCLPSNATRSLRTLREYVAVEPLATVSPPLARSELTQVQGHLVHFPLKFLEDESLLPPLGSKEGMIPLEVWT
Calcium/calmodulin-dependent protein kinase type II subunit delta, sequence (Q13557 whole entry, canonical isoform): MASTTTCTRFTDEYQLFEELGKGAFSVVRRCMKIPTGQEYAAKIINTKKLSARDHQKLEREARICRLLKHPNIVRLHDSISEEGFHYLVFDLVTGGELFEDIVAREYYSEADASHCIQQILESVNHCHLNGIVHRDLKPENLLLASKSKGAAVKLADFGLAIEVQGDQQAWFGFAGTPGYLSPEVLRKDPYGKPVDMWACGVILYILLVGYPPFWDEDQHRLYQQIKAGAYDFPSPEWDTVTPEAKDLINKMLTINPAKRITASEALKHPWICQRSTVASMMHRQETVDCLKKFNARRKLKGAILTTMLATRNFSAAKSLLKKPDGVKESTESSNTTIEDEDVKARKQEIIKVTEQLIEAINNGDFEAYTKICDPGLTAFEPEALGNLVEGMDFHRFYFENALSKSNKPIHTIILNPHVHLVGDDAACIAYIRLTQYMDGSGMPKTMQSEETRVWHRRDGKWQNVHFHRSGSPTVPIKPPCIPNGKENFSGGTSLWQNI
Serine/threonine-protein kinase PAK 1, sequence (Q13153 whole entry): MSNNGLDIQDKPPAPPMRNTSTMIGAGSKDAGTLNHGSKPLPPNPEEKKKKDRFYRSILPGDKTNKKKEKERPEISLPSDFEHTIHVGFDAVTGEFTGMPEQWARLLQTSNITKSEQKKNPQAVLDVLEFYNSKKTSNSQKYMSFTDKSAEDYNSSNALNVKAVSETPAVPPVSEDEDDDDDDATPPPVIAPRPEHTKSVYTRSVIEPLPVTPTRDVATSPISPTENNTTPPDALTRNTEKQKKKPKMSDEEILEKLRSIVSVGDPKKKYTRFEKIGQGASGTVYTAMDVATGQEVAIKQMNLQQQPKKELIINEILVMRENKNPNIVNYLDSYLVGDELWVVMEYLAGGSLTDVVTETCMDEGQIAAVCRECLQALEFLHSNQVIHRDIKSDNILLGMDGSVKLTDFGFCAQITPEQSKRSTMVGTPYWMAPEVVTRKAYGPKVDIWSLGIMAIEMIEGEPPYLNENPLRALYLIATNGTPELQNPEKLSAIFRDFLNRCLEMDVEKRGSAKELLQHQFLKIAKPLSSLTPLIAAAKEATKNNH

With `C[C@@H]1CN([C@@H](C)CO)C(=O)c2cccc(NC(=O)Nc3cccc4ccccc34)c2O[C@H]1CN(C)S(=O)(=O)c1cccc(F)c1`, the AC50 was 22.9 µM (active) in [1], 32.1 µM (active) in the assay on INS1 [2] and 29.6 µM (active) with INS1 [3].
`C[C@@H]1CN([C@@H](C)CO)C(=O)c2cccc(NC(=O)Nc3cccc4ccccc34)c2O[C@H]1CN(C)S(=O)(=O)c1ccc2c(c1)OCC2`: the AC50 was 67.9 µM (active) in the assay with INS1 [4], 25.2 µM (active) in assay [1], 29.8 µM (active) in the assay with INS1 [5] and > 195 µM (inactive) in the assay on INS1 [6].
For the compound `C[C@@H](CN1CCC(n2c(=O)[nH]c3ccccc32)CC1)NC(=O)CCc1ccc(F)cc1`, the IC50 at Phospholipase D1 is 0.26 µM (active); at Phospholipase D2 it was 9 µM (active).
Consider `C[C@@H]1CN([C@@H](C)CO)C(=O)c2cc(NC(=O)Nc3ccccc3)ccc2O[C@@H](C)CCCCO[C@H]1CN(C)C(=O)OC(C)(C)C`, for which the AC50 is 1.37 µM (active) in [7] and 2.41 µM (active) in assay [8].
For `CCC(Sc1nc2ccccc2c(=O)[nH]1)C(=O)Nc1cccc(OC)c1` (centres undefined), in assay [9], the CC50 was > 100 µM (active).
For the compound `CCCCOc1ccccc1CCc1cccc2nc(N)nc(N)c12`, the Ki in assay [10] is 5.01 µM (active); in assay [11], 3.16 µM (active); in assay [12], 3.16 µM (active); in [13], 5.01 µM (active); in assay [14], 1.58 µM (active); in assay [15] it was 10 µM (active). The figures for the Ki in [16] and in assay [17] were 3.98 µM (active) and 2.51 µM (active), respectively.
Take `Cc1ccc(/C=N/NC(=O)c2cc(-c3ccccc3)nc3ccccc23)o1`: the AC50 in [18] was 27.2 µM (active).
On to `COc1cc(-c2ccc3c(c2)Nc2cc(OCCCCO)c(OC)cc2NC3=O)ccc1O`, for which the Ki is 1.26 µM (active) at Aurora kinase A, 3.98 µM (active) in assay [19] and 1.58 µM (active) at Aurora kinase B.
